Assays:
[1] = system: human pancreatic cancer cells (Panc-1 cells); test: Cell growth inhibition, Panc-1 pancreatic cancer cells; format: cell-based; conditions: F6 5-50 μg/ml for 72 hours, FIG. 18A
[2] = system: human leukemia K562 cells; test: WST-1 cell proliferation assay, K562 leukemia cells; format: cell-based; conditions: for anti-proliferative effect on leukemic K562 cells: WST-1, FIGS. 3B, 4A
Protocol: The graphs show results of different concentrations of the compounds using the WST-1 spectrophotometric detection assay. WST is a colorimetric assay to assess cell proliferation under different treatment conditions. This assay is based on the cleavage of a tetrazolium salt (2-(4-Iodophenyl)-3-(4-nitrophenyl)-5-phenyl-2h-tetrazolium chloride) to form formazan (a colored compound) by mitochondrial dehydrogenases in viable cells. As a result, the assay measures the net metabolic activity of the cells. Human leukemia K562 cell line was purchased from ATCC (Manassas, Va., USA) and plated a day before the experiment in normal growth medium. The next day, the medium was replaced with serum free medium (Gibco #11835-030) to starve the cells for 4 h. Cells were deprived of serum for 4 h before treatment with the lipids to eliminate binding of the compounds to serum proteins. After starvation, K562 cells were then centrifuged. The medium was replaced with fresh IMDM media containing 1% (v/v) FBS and 100 units of PS. Cells (1×104 in 100 L) were seeded into each well with conditioned medium for overnight (20 h) in a 96-well plate to which the test compounds (−ve control ethanol, Ft-3, F-6 and S5) were added at the concentrations indicated. A volume of 10 uL WST-1, cell proliferation assay reagent (Roche Diagnostics, Indianapolis, Ind., USA), was added to each well and incubated for 4 h, and then the wells were read on a plate reader at 450 nm with a reference reading at 650 nm. Reference reading at 650 nm was used for subtracting background readouts.
Another embodiment of the anti-cancer oral composition was prepared by combining lipid Fraction 3 of the neutral lipid fraction and ethanol in a ratio of 20 μg/μL to provide a mixture. The mixture was prepared by dissolving Fraction 3 in pure ethanol then diluting it to the desired concentration with culture medium. Cells (1×10^4) were starved overnight in serum-free medium, then the medium was replaced prior to incubation with IMDM/1% FBS/pen-strep. […]

breast MCF-7 cells = test: WST-1 cell proliferation assay, MCF-7 breast cancer cells; format: cell-based, human; conditions: WST-1, FIG. 4B
Protocol: FIG. 4B is a graph showing the effect of fraction 3 of the neutral lipids, furan (F6), and a steroid found in fraction 3 of the neutral lipids, (S5) and the two isolated components from fraction 3 of the neutral lipids on breast MCF-7 cells using the WST-1 spectrophotometric detection assay. WST was performed to assess cell proliferation under different treatment conditions. The assay measured the net metabolic activity of the cells. Human breast MCF-7 cell line was purchased from ATCC (Manassas, Va., USA). 1×10^4 cells/well/100 L) and were plated a day before experiment in normal growth medium. The next day, the medium was replaced with serum free medium (Gibco #11835-030) to starve the cells for 4 h. Cells were deprived of serum for 4 h before treatment with the lipids to eliminate binding of the compounds to serum proteins. After starvation, the medium was replaced with fresh IMDM media containing 1% (v/v) FBS and 100 units of PS. Cells (1×104 in 100 L) were seeded into each well with conditioned medium overnight (20 h) in a 96-well plate to which the test compounds (−ve control ethanol, Fr-3 of the neutral lipids, F6 and S5) were added at the concentrations indicated. […] Then, the wells were read on a plate reader at 450 nm with a reference reading at 650 nm. Reference reading at 650 nm was used for subtracting background readouts.

[3] = system: human breast cancer cells MDA MB-231; test: WST-1 cell proliferation assay, MDA MB-231 breast cancer cells; format: cell-based; conditions: WST-1, FIG. 4C
Protocol: FIG. 4C is a graph showing the effect of fraction 3 of the neutral lipids, furan (F6), and a steroid (S5) on human breast cancer cells MDA MB-231 using the WST-1 spectrophotometric detection assay. The assay measured the net metabolic activity of the cells. Human breast MDA MB-231 cell line was purchased from ATCC (Manassas, Va., USA). MCF-7 and 1_x 10^4 cells/well/100 uL) and were plated a day before experiment in normal growth medium. The next day, medium was replaced with serum free medium (Gibco #11835-030) to starve the cells for 4 h. Cells were deprived of serum for 4 h before treatment with the lipids to eliminate binding of the compounds to serum proteins. After starvation, Cells (1_x 104 in 100 L) were seeded into each well with conditioned medium overnight (20 h) in a 96-well plate to which the test compounds (−ve control ethanol, Ft-3, F-6 and S5) were added at the concentrations indicated. A volume of 10 uL WST-1, cell proliferation assay reagent (Roche Diagnostics, Indianapolis, Ind., USA), was added to each well and incubated for 4 h. Then, the wells were read on a plate reader at 450 nm with a reference reading at 650 nm. Reference reading at 650 nm was used for subtracting background readouts.

Capan2 cells = test: Proliferation of Capan2 pancreatic cancer cells; format: cell-based, human; conditions: F6 5-50 μg/ml for 72 hours, FIG. 18A
BxPC3 cells = test: Proliferation of BxPC3 pancreatic cancer cells; format: cell-based, human; conditions: F6 5-50 μg/ml for 72 hours, FIG. 18A
Panc-1 cells [4] = test: Invasion chamber (transwell) assay, Panc-1 cells; format: cell-based, human; conditions: concentration dependent, 6 hours incubation, FIGS. 19A-19B
Protocol: (§1) Another embodiment of the anti-cancer oral composition was prepared by combining lipid Fraction 1 with ethanol to provide a first mixture in a ratio of 5 μg/mL, a second mixture in a ratio of 10 μg/mL, and a third mixture in a ratio of 25 μg/mL. The mixtures and a control (0.1% ethanol) were tested for inhibition of metastatic potential of cancer Hep3B cell line (FIGS. 13A-13E) and cancer Panc-1 cell line (FIGS. 13F-131).
(§2) An aliquot of 0.5 ml Hep3B or Panc-1 cell suspension in serum-free medium with BSA (1 mg/ml) containing 6×10^4 cells/ml was mixed with F6 and then applied to each invasion chamber. An aliquot of 0.5 ml medium with 10% serum was loaded into the bottom of the well. After incubation for 6 hours, cells that invaded to the bottom surface of the transwell were fixed with 70% ethanol, stained with Diff Quik solution (Sysmex), and counted in five selected fields.

Hep3B cells = test: Invasion chamber (transwell) assay / metastatic potential, Hep3B cells; format: cell-based, human; conditions: FIGS. 17A-17E
Protocol: as §1, §2

Panc-1 cells [5] = test: Apoptosis induction (cell cycle, caspase-3), pancreatic cancer cells; format: cell-based, human; conditions: FIGS. 18A-18F

Row | Structure (SMILES) | inhibition of proliferation of Panc-1 cells [1] | anti-proliferative effect on leukemic K562 cells [2] | anti-proliferative effect on breast MCF-7 cells (breast MCF-7 cells) | anti-proliferative effect on breast MDA MB-231 cells [3] | inhibition of proliferation of Capan2 cells (Capan2 cells) | inhibition of proliferation of BxPC3 cells (BxPC3 cells) | invasion of Panc-1 cells (Panc-1 cells [4]) | Hep3B cell metastasis (markers migration and invasion) (Hep3B cells) | mechanism of regulation of pancreatic cancer cell growth (Panc-1 cells [5]) | effect of combination of Fraction 3 and Gleevec on K562 cell survival ([2]; Gleevec 2 uM with Fraction 3, WST-1, FIG. 3B)
1 | CCCCCc1oc(CCCCCCCCCCC(=O)O)c(C)c1C [Fraction F6, 12,15-epoxy-13,14-dimethyleicosa-12,14-dienoic acid] | potently inhibited proliferation | anti-proliferative effects | anti-proliferative effects | anti-proliferative effects | potently inhibited proliferation | potently inhibited proliferation | inhibited invasion | inhibit cancer Hep3B cell metastasis | induction of apoptosis | 
2 | CC(C)CCC[C@@H](C)[C@H]1CC[C@H]2[C@@H]3CC=C4C=CCC[C@]4(C)[C@H]3CC[C@]12C [Fraction S5, cholesta-3,5-diene] |  | anti-proliferative effects | anti-proliferative effects | anti-proliferative effects |  |  |  | inhibit cancer Hep3B cell metastasis |  | 
3 | Cc1ccc(NC(=O)c2ccc(CN3CCN(C)CC3)cc2)cc1Nc1nccc(-c2cccnc2)n1 [Gleevec, reference compound] |  |  |  |  |  |  |  |  |  | potentiated the anti-proliferative effect

Reference: patent US20200281989A1, “METHOD OF PREPARING A COMPOSITION FOR TREATING CANCER” (priority 2019, published 2020)
